From US4256753A, “4-(2-Pyridylamino)phenylacetic acid derivatives” (Dainippon Pharmaceutical Co., Ltd., priority 1978, dated 1981)
Like-named read-outs stand apart in the source and are kept apart here.

Legend:
[1] = test system: Carrageenin-induced hind paw edema; experiment: Carrageenin-induced hind paw edema in rats (CAR method); type: in vivo; details: Rattus norvegicus, po, read-out: Anti-inflammatory ED50, CAR
Protocol: (a) Carrageenin-induced hind paw edema in rats (CAR method)
The test was carried out according to the method described in Proc. Soc. Exp. Biol. Med., 111, 544 (1962).

[2] = test system: Acetic acid-induced vascular permeability; experiment: Acetic acid-induced vascular permeability in mice (CAP method); type: in vivo; details: Mus musculus, po, read-out: Anti-inflammatory ED50, CAP
Protocol: (b) Acetic acid-induced vascular permeability in mice (CAP method)
The test was carried out according to the method described in Brit. J. Pharm. Chemother., 22, 246 (1964).

[3] = test system: Phenylquinone-induced writhing; experiment: Phenylquinone-induced writhing in mice (PQW method); type: in vivo; details: Mus musculus, po, read-out: Analgesic ED50, PQW
Protocol: (a) Phenylquinone-induced writhing in mice (PQW method)
The test was carried out according to the method described in Proc. Soc. Exp. Biol. Med., 95, 729 (1957).

[4] = test system: Acetic acid-induced writhing; experiment: Acetic acid-induced writhing in rats (ACWR method); type: in vivo; details: Rattus norvegicus, po, read-out: Analgesic ED50, ACWR
Protocol: (b) Acetic acid-induced writhing in rats (ACWR method)
The test was carried out according to the method described in Arzneim. Forsch., 25, 1505 (1975).

[5] = test system: adjuvant-induced arthritis; experiment: Prophylactic effect on adjuvant-induced arthritis in rats; type: in vivo, female rats of JCL:SD strain; details: for Arthritic incidence: 80 mg/kg/day p.o., days 0-20, vehicle control 100
[6] = Gastrointestinal ulcerogenicity in fasted rats; details: rat, in vivo, po
Protocol: The test was carried out using fasted rats according to the method described in Arzneim.

Anti-allergic activity = details: result in words, no test described
in vivo = details: mouse, po
[7] = mice, acetic acid-induced vascular permeability

SMILES | ED50 [1] | ED50 [2, 7] | ED50 [3] | ED50 [4] | ED50 [2] | Arthritic incidence [5] | TD50 [6] | anti-allergic activity (Anti-allergic activity) | Arthritic index mean ± S.E., 22nd day ([5]; rat, in vivo) | Arthritic index mean ± S.E., 28th day ([5]; rat, in vivo) | selectivity ratio ([6]; rats, p.o., UD50 divided by ED50 of CAR method, read-out: Safety index, ratio of UD50/ED50 (CAR method)) | LD50 at 168 h (in vivo)
CC(C(=O)O)c1ccc(Nc2ccccn2)c(Cl)c1 (centres unmarked) [B, 2-[3-Chloro-4-(2'-pyridylamino)phenyl]propionic acid] | 13.1 mg/kg | 3.18 mg/kg | 8.62 mg/kg | 1.8 mg/kg | – | – | – | – | – | – | – | –
CC(C)Cc1ccc(C(C)C(=O)O)cc1 (centres unmarked) [Compound 1, 2-(4-isobutylphenyl)propionic acid, reference compound] | – | – | 50 mg/kg | 9.43 mg/kg | 7.11 mg/kg | 85.7% | 125 mg/kg | does not show such an activity | – | – | – | –
CC(C(=O)O)c1ccc(N(C)c2ccccn2)cc1 (centres unmarked) [Compound 2, 2-[4-[N-Methyl-N-(2'-pyridyl)amino]phenyl]propionic acid] | 40 mg/kg | > 20 mg/kg | > 100 mg/kg | 20 mg/kg | – | – | – | – | – | – | – | –
CC(C(=O)O)c1ccc(Oc2ccccn2)cc1 (centres unmarked) [Compound 3, 2-[4-(2'-Pyridyloxy)phenyl]propionic acid] | 20 mg/kg | 6.74 mg/kg | 80 mg/kg | 5.51 mg/kg | – | – | – | – | – | – | – | –
CC(C(=O)O)c1ccc(Nc2ccccn2)cc1 (centres unmarked) [Compound A, 2-[4-(2'-Pyridylamino)phenyl]propionic acid] | 10 mg/kg | 0.88 mg/kg | 7.33 mg/kg | 1.36 mg/kg | – | 0% | > 640 mg/kg | shows an anti-allergic activity | 1.3 ± 0.8 | 1.3 ± 0.6 | > 64 | 1910 mg/kg
